Consider 33 compounds from patent US20200299306A1, “COMPOUNDS WITH A BENZO[A]CARBAZOLE STRUCTURE AND USE THEREOF” (UNIVERSITA' DI PISA, priority 2017, published 2020).

Where only a bound is given, the exact number is not on record here.

As usually defined, the IC50 is the concentration at which inhibition is half-maximal.

T1 sequence (Q00987 whole entry, one chain of several): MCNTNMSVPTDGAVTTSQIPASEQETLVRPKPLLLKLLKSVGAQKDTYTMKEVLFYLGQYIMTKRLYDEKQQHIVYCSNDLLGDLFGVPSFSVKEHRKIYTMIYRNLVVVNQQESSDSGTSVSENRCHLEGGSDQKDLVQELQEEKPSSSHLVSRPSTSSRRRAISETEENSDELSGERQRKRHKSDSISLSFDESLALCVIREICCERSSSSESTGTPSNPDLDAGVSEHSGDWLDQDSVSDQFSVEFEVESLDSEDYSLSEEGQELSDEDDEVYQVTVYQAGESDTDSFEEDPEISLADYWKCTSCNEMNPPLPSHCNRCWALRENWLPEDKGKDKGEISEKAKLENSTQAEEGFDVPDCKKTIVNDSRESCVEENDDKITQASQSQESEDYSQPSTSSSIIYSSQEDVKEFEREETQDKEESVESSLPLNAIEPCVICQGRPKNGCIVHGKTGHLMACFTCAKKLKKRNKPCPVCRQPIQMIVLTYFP

For one assay, the system named is protein p53. Briefly: Stabilisation of intracellular levels of protein p53 (343MG). The assay is classed as cell-based, human. The conditions noted are these: U343MG; FIG. 3. An excerpt: 1) Costa, B; Grillone, A F; Salvetti, A; Rocchiccioli, S; Iacopetti, P; Daniele, S; Da Pozzo, E; Campiglia, P; Novellino, E; Martini, C; Rossi, L An antibody-free strategy for screening putative HDM2 inhibitors using crude bacterial lysates expressing GST-HDM2 recombinant protein Drug Testing and Analysis (2013), 5, 7, 596-601.
2) Costa B, Bendinelli S, Gabelloni P, Da Pozzo E, Daniele S, et al. Human Glioblastoma Multiforme: p53 Reactivation by a Novel MDM2 Inhibitor. PLoS ONE (2013) 8(8): e72281. doi:10.1371/journal.pone.0072281.
The results are set out in FIG. 3.
On to `CC(=O)OCC1=C(C(=O)OC(C)(C)C)N2C(=O)[C@@H](NC(=O)COc3ccc4c(c3)CCc3c-4[nH]c4ccc(F)cc34)[C@H]2SC1` [RM37, (6R, 7R)-tert-butyl-7-(2-(8-fluoro-6,11-dihydro-5H-benzo[a]carbazol-3-yloxy)acetamido)-3-(acetoxymethyl)-8-oxo-5-thia-1-azabicyclo[4.2.0]oct-2-ene-2-carboxylate], for which the “Stabilisation of intracellular levels of protein p53” value is “stabilises the intracellular levels of protein p53”.

A further assay concerns U343MG. Briefly: Effect on cell apoptosis (U343MG). The note with it: FIG. 7 and FIG. 8. It is filed as cell-based, human. The method, then: 8) Effect of RM37 on cell apoptosis (U343MG; 1,2). […] The results are set out in FIG. 7 and FIG. 8.
As for `CC(=O)OCC1=C(C(=O)OC(C)(C)C)N2C(=O)[C@@H](NC(=O)COc3ccc4c(c3)CCc3c-4[nH]c4ccc(F)cc34)[C@H]2SC1` [RM37, (6R, 7R)-tert-butyl-7-(2-(8-fluoro-6,11-dihydro-5H-benzo[a]carbazol-3-yloxy)acetamido)-3-(acetoxymethyl)-8-oxo-5-thia-1-azabicyclo[4.2.0]oct-2-ene-2-carboxylate], the “Effect on cell apoptosis” value is “induces cell apoptosis”.

Another assay addresses T1, p53/MDM2 complex (Homo sapiens, UniProt Q00987).
T1 construct: Test performed on cell lysate of human glioblastoma (GBM) cells U343MG; endogenous in cells; host or cells: U343MG human glioblastoma cells (lysate)
The assay can be described thus: Inhibitory effect on p53/MDM2 complex binding, cell lysate of human glioblastoma U343MG cells. The conditions noted are these: 10 uM; cell lysate of human glioblastoma (GBM) cells U343MG; read-out: % inhibition at 10 uM of p53/MDM2 complex binding. Here is the method:
Test performed on cell lysate of human glioblastoma (GBM) cells U343MG (1,2).
`Clc1ccc2[nH]c3c(c2c1)COc1ccccc1-3` [RA15]: the inhibition at 10 µM was less than 5%.

Consider `CN(C)CCCn1c2ccc(Cl)cc2c2ccc3cc(OCC(=O)O)ccc3c21` [RM58], for which the inhibition at 10 µM was 58%.

With `CC(=O)OCC1=C(C(=O)O)N2C(=O)[C@@H](NC(=O)COc3ccc4c(c3)CCc3c-4[nH]c4ccc(F)cc34)[C@H]2SC1` [RM53, (6R,7R)-7-(2-[(8-fluoro-6,11-dihydro-5H-benzo[a]carbazol-3-yl)oxy]acetamido)-3-(acetoxymethyl)-8-oxy-5-thia-1-azabicyclo[4.2.0]oct-2-ene-2-carboxylic acid], the inhibition at 10 µM is less than 5%.

For `CCNC(=O)COc1ccc2c(c1)S(=O)(=O)Cc1c-2[nH]c2ccc(F)cc12` [RA13], the inhibition at 10 µM was 22%.

Turning to `COc1ccc2c(c1)-c1[nH]c3ccc(Cl)cc3c1CO2` [RA16], the inhibition at 10 µM was less than 5%.

Still in this assay, the particulars now being: cell lysate of human glioblastoma (GBM) cells U343MG.
Take `CCOC(=O)CO/N=C1/Cc2c([nH]c3ccc(F)cc23)-c2ccc(OCC(=O)NC3C(=O)N4C(C(=O)OC(C)(C)C)=C(COC(C)=O)CSC34)cc21` (stereo not shown) [RA37]: the IC50 came out at 180 ± 150 nM.

On to `CC(=O)OCC1=C(C(=O)OC(C)(C)C)N2C(=O)C(NC(=O)COc3ccc4c(c3)CCc3c-4[nH]c4ccc(Cl)cc34)C2SC1` (stereo not shown) [RM36], for which the IC50 was determined as 280 ± 20 nM.

For `CC(=O)OCC1=C(C(=O)OC(C)(C)C)N2C(=O)C(NC(=O)COc3ccc4c(c3)S(=O)(=O)Nc3c-4[nH]c4ccc(F)cc34)C2SC1` (stereo not shown) [RA36], the IC50 stood at 220 ± 100 nM.

Compound `COc1cc2c(cc1OC)-c1c(c3c(N)cccc3n1CCCN(C)C)CCC2` [GA17M8] showed a concentration for half-maximal inhibition (IC50) of 12700 ± 1500 nM.

Regarding `COc1ccc(COC(=O)C2N3C(=O)C(NC(=O)COc4ccc5c(c4)S(=O)(=O)Nc4c-5[nH]c5ccc(Br)cc45)C3SC2(C)C)cc1` (stereo not shown) [RA26], the concentration for half-maximal inhibition (IC50) came out at 120 ± 90 nM.

In turn, `CN(C)C(=O)C(CCCNC(=O)OCc1ccccc1)NC(=O)COc1ccc2c(c1)S(=O)(=O)NCc1c-2[nH]c2ccc(F)cc12` (stereo not shown) [RA3] showed an IC50 of 620 ± 50 nM.

`CC(=O)OCC1=C(C(=O)OC(C)(C)C)N2C(=O)[C@@H](NC(=O)COc3ccc4c(c3)CCc3c-4[nH]c4cccc([N+](=O)[O-])c34)[C@H]2SC1` [GA09a]: the IC50 was 650 ± 50 nM.

As for `CNC(=O)C(CCCNC(=O)OCc1ccccc1)NC(=O)COc1ccc2c(c1)OCc1c-2[nH]c2ccc(OCC(=O)NC(CCc3ccccc3)C(=O)N(C)C)cc12` (stereo not shown) [RA19], the half-maximal inhibitory concentration (IC50) was determined as 450 ± 15 nM.

In turn, `CC(=O)OCC1=C(C(=O)OC(C)(C)C)N2C(=O)C(NC(=O)COc3ccc4c(c3)C(=O)Cc3c-4[nH]c4ccc(C(F)(F)F)cc34)C2SC1` (stereo not shown) [RM39] registered an IC50 of 232 ± 200 nM.

Consider `CC(=O)OCC1=C(C(=O)OC(C)(C)C)N2C(=O)[C@@H](NC(=O)COc3ccc4c(c3)CCc3c-4[nH]c4ccc(F)cc34)[C@H]2SC1` [RM37, (6R, 7R)-tert-butyl-7-(2-(8-fluoro-6,11-dihydro-5H-benzo[a]carbazol-3-yloxy)acetamido)-3-(acetoxymethyl)-8-oxo-5-thia-1-azabicyclo[4.2.0]oct-2-ene-2-carboxylate], for which the IC50 came to 222 ± 44 nM.

Compound `CCNC(=O)CO/N=C1/Cc2c([nH]c3ccc(F)cc23)-c2ccc(OCC(=O)NC3C(=O)N4C3SC(C)(C)C4C(=O)OCc3ccc(OC)cc3)cc21` (stereo not shown) [RA29] returned an IC50 of 100 ± 30 nM.

Consider `COc1ccc2[nH]c3c(c2c1)CCCc1cc(OCC(=O)O)ccc1-3` [RA2], for which the half-inhibitory concentration (IC50) came out at 2900 ± 120 nM.

As for `CC(=O)OCC1=C(C(=O)OC(C)(C)C)N2C(=O)C(NC(=O)COc3ccc4c(c3)OCc3c-4[nH]c4ccc(F)cc34)C2S(=O)(=O)C1` (stereo not shown) [RA31], the IC50 amounted to 120 ± 45 nM.

Compound `O=C(COc1ccc2c(c1)S(=O)(=O)CCc1c-2[nH]c2ccc(F)cc12)NCc1ccc(F)c(F)c1` [RA1] returned an IC50 of 920 ± 20 nM.

In turn, `COc1ccc(COC(=O)C2N3C(=O)C(NC(=O)COc4ccc5c(c4)S(=O)(=O)CCc4c-5[nH]c5ccc(F)cc45)C3SC2(C)C)cc1` (stereo not shown) [RM43] had an IC50 of 228 ± 16 nM.

Consider `CC(=O)OCC1=C(C(=O)OC(C)(C)C)N2C(=O)C(NC(=O)COc3ccc4c(c3)S(=O)(=O)Cc3c-4[nH]c4ccc(F)cc34)C2SC1` (stereo not shown) [RA25], for which the IC50 was 143 ± 16 nM.

On to `CNC(=O)C(CCCNC(=O)OCc1ccccc1)NC(=O)COc1ccc2c(c1)OCc1c-2[nH]c2ccc(F)cc12` (stereo not shown) [RA18], for which the IC50 was 1350 ± 150 nM. Compared with the last compound, the IC50 is about 9.4-fold higher.

`CCNC(=O)C(CCCNC(=O)OCc1ccccc1)NC(=O)CC1C(NC(=O)COc2ccc3c(c2)S(=O)(=O)Cc2c-3[nH]c3ccc(F)cc23)C(=O)N1CC(=O)OCc1ccc(OC)cc1` (stereo not shown) [RA30] had an IC50 of 150 ± 10 nM.

In turn, `CC(=O)OCC1=C(C(=O)OC(C)(C)C)N2C(=O)C(NC(=O)COc3ccc4c(c3)CCc3c-4[nH]c4ccc(Br)cc34)C2SC1` (stereo not shown) [RM47] had an IC50 of 195 ± 22 nM.

The compound `CC(=O)OCC1=C(C(=O)OC(C)(C)C)N2C(=O)C(NC(=O)COc3ccc4c(c3)/C(=N\O)Cc3c-4[nH]c4ccc(F)cc34)C2SC1` (stereo not shown) [RM38] came in with an IC50 of 222 ± 210 nM.

`CC(=O)OCC1=C(C(=O)OC(C)(C)C)N2C(=O)[C@@H](NC(=O)COc3ccc4c(c3)CCc3c-4[nH]c4cc([N+](=O)[O-])ccc34)[C@H]2SC1` [GA09b] yielded an IC50 of 225 ± 20 nM.

Turning to `CNC(=O)C(CCCNC(=O)OCc1ccccc1)NC(=O)COc1ccc2c(c1)NCc1c-2[nH]c2ccc(F)cc12` (stereo not shown) [RA20], the IC50 came out at 1550 ± 250 nM.

Consider `CC(=O)OCC1=C(C(=O)OC(C)(C)C)N2C(=O)C(NC(=O)COc3ccc4c(c3)S(=O)(=O)NCc3c-4[nH]c4ccc(F)cc34)C2SC1` (stereo not shown) [RA40], for which the IC50 came to 197 ± 124 nM.

Regarding `CCNC(=O)C(CCCNC(=O)OCc1ccccc1)NC(=O)CC1C(NC(=O)COc2ccc3c(c2)S(=O)(=O)NCc2c-3[nH]c3ccc(F)cc23)C(=O)N1CC(=O)OCc1ccc(OC)cc1` (stereo not shown) [RA44], the IC50 was 223 ± 22 nM.

`CC(C)(C)OC(=O)C1N2C(=O)C(NC(=O)COc3ccc4c(c3)S(=O)(=O)NCc3c-4[nH]c4ccc(F)cc34)C2SC1(C)C` (stereo not shown) [RA42]: the 50% inhibitory concentration (IC50) amounted to 292 ± 25 nM.

The compound `CCOC(=O)/C(COc1ccc2c(ccc3c4cc(Cl)ccc4n(CCCN(C)C)c23)c1)=N/OC` [RM66] displayed an IC50 of 2700 ± 120 nM.

`COc1ccc(COC(=O)C2N3C(=O)C(NC(=O)COc4ccc5c(c4)OCc4c-5[nH]c5ccc(Br)cc45)C3SC2(C)C)cc1` (stereo not shown) [RA35]: the IC50 worked out at 375 ± 22 nM.

Still in this assay, the particulars now being: read-out: % inhibition at 10 uM of p53/MDM2 complex binding.
In the case of `COC(=O)C(NC(=O)COc1ccc2c(ccc3c4cc(Cl)ccc4n(CCCN(C)C)c23)c1)c1ccccc1` (stereo not shown) [RM85], the inhibition at 10 µM worked out at 82%.

The test system of the next assay is U343MG. Briefly: Effect on cell cycle (U343MG). It is filed as cell-based, human. The conditions noted are these: FIG. 6. Here is the method:
7) Effect of RM37 on cell cycle (U343MG; 1,2). […] The results are set out in FIG. 6.
`CC(=O)OCC1=C(C(=O)OC(C)(C)C)N2C(=O)[C@@H](NC(=O)COc3ccc4c(c3)CCc3c-4[nH]c4ccc(F)cc34)[C@H]2SC1` [RM37, (6R, 7R)-tert-butyl-7-(2-(8-fluoro-6,11-dihydro-5H-benzo[a]carbazol-3-yloxy)acetamido)-3-(acetoxymethyl)-8-oxo-5-thia-1-azabicyclo[4.2.0]oct-2-ene-2-carboxylate]: the “Effect on cell cycle” value is listed as “blocks the cell cycle in G1”.

The next assay deals with p53. The assay can be described thus: Stabilisation of p53 (U343MG). The note with it: due to reduction of p53 bonded to MDM2, not mRNA induction, FIG. 1. It is filed as cell-based, human.
As to `CC(=O)OCC1=C(C(=O)OC(C)(C)C)N2C(=O)[C@@H](NC(=O)COc3ccc4c(c3)CCc3c-4[nH]c4ccc(F)cc34)[C@H]2SC1` [RM37, (6R, 7R)-tert-butyl-7-(2-(8-fluoro-6,11-dihydro-5H-benzo[a]carbazol-3-yloxy)acetamido)-3-(acetoxymethyl)-8-oxo-5-thia-1-azabicyclo[4.2.0]oct-2-ene-2-carboxylate], the “Stabilisation of p53” value is given as “stabilisation of p53”.
